Experimental findings from PubChem BioAssay (NCI) are described below.

Values joined by “and” are separate entries in the source; they are usually repeats but may differ in a detail not shown here. Equal values may be shown once.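 Step 1: Grow cells in 96-well plates. Step 2: Expose to compound for 48 hours at 5 concentrations. Step 3: Interpolate endpoints linearly; if unreached, use highest concentration. GI50 marks 50% less growth. TGI marks complete inhibition of growth.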

Among the test systems are SF-295 CNS; OVCAR-5 ovarian; A549 NSCLC; 786-0 renal; RXF 393 renal; HCC-2998 colon; HOP-92 NSCLC; EKVX NSCLC; LOX IMVI melanoma; BT-549 breast.
What all share (assay): NCI tumour cell line growth inhibition, 48 h

On to `C=C1C(=O)O[C@H]2[C@H]1CC/C(COC(=O)NCc1cc3ccccc3[nH]1)=C\CC[C@@]1(C)O[C@@H]21`, for which the GI50 with SF-295 CNS is 8.23 µM; in the assay on OVCAR-5 ovarian, 2.26 µM; in the assay on A549 NSCLC, 10.3 µM; in the assay with 786-0 renal, 1.76 µM; in the assay with RXF 393 renal, 1.09 µM; with HCC-2998 colon, 2.02 µM. Further, the GI50 is 1.29 µM with HOP-92 NSCLC, 1.64 µM in the assay with EKVX NSCLC, 1.26 µM with LOX IMVI melanoma and 1.56 µM in the assay with BT-549 breast. In addition, the TGI in the assay with SF-295 CNS is 20.9 µM; in the assay on OVCAR-5 ovarian, 5.12 µM; with A549 NSCLC, 27.2 µM; with 786-0 renal, 3.52 µM; in the assay with RXF 393 renal it was 2.36 µM; in the assay with HCC-2998 colon, 3.67 µM. The TGI stood at 2.98 µM in the assay on HOP-92 NSCLC, 3.53 µM in the assay on EKVX NSCLC, 2.61 µM in the assay on LOX IMVI melanoma and 3.14 µM with BT-549 breast.

On to `Cc1c(N=Nc2ccc([N+](=O)[O-])cc2)nc2scc(-c3ccccc3)n12`, for which the TGI in the assay with SF-295 CNS, with OVCAR-5 ovarian, in the assay on A549 NSCLC, with 786-0 renal, in the assay on RXF 393 renal and with HCC-2998 colon was more than 100 µM each time. Also, the TGI in the assay on HOP-92 NSCLC, in the assay on EKVX NSCLC, with LOX IMVI melanoma and in the assay on BT-549 breast was more than 100 µM each time.

For the molecule `O=c1cc(C(F)(F)F)c2cc3c(cc2o1)NCCC3`, the TGI in the assay with SF-295 CNS is more than 100 µM; with OVCAR-5 ovarian it was more than 100 µM; in the assay on A549 NSCLC, more than 100 µM; with 786-0 renal, more than 100 µM; with RXF 393 renal, 0.987 µM; in the assay on HCC-2998 colon, more than 100 µM. Besides, the TGI with HOP-92 NSCLC, in the assay on EKVX NSCLC, with LOX IMVI melanoma and in the assay with BT-549 breast was more than 100 µM each time.

With `CCCC[C@H]1C(=O)O[C@H](C)[C@H](NC(=O)c2cccc(NC=O)c2O)C(=O)O[C@@H](C)[C@@H]1OC(=O)CC(C)C`, the TGI in the assay on SF-295 CNS stood at 21 µM; with OVCAR-5 ovarian it was 39 µM; in the assay with A549 NSCLC, 29.5 µM; with 786-0 renal, 35 µM; with RXF 393 renal, 24.6 µM; with HCC-2998 colon, 35.1 µM. Besides, the TGI with HOP-92 NSCLC was 29.9 µM; in the assay with EKVX NSCLC, 37.9 µM; in the assay with LOX IMVI melanoma, 19 µM; with BT-549 breast it was 36 µM.

As for `O=C(/C=C/c1ccc(OCC(=O)N2CCN(c3ccccc3)CC2)cc1)c1ccc(Cl)cc1`, the TGI was 54.7 µM in the assay with SF-295 CNS; more than 100 µM in the assay on OVCAR-5 ovarian; more than 100 µM in the assay on A549 NSCLC; 73.7 µM in the assay on 786-0 renal; 55.1 µM in the assay with RXF 393 renal; more than 100 µM with HCC-2998 colon. Besides, the TGI in the assay with HOP-92 NSCLC is 47.8 µM; in the assay with EKVX NSCLC, more than 83.9 µM; in the assay with LOX IMVI melanoma, more than 100 µM; with BT-549 breast, more than 85.6 µM.

Consider `O=C(/C=C/c1cccnc1)NCCCCC1CCN(C(=O)c2ccccc2)CC1`, for which the GI50 in the assay on SF-295 CNS was less than 0.0256 µM; in the assay with OVCAR-5 ovarian, 27.7 µM; with A549 NSCLC, 0.166 µM; in the assay on 786-0 renal it was more than 100 µM; in the assay with RXF 393 renal it was more than 100 µM; in the assay with HOP-92 NSCLC, 26.8 µM and > 32 µM. The GI50 was more than 66.9 µM in the assay with EKVX NSCLC; more than 100 µM in the assay with LOX IMVI melanoma; 6.11 µM and 19.6 µM in the assay with BT-549 breast. The TGI in the assay with SF-295 CNS, in the assay on OVCAR-5 ovarian, with A549 NSCLC, in the assay on 786-0 renal, in the assay with RXF 393 renal and with HCC-2998 colon was more than 100 µM throughout. Besides, the TGI in the assay on HOP-92 NSCLC, with EKVX NSCLC, with LOX IMVI melanoma and in the assay on BT-549 breast was more than 100 µM each time.

On to `COc1ccc(/C=C/C(=O)c2cc3c(N)c(C(=O)Nc4ccccc4Cl)sc3nc2C)cc1`, for which the GI50 with SF-295 CNS is 3 µM; with OVCAR-5 ovarian, more than 50 µM; in the assay on A549 NSCLC, 2.14 µM; with 786-0 renal it was 0.839 µM; in the assay with RXF 393 renal it was 0.846 µM; with HCC-2998 colon, 8 µM. Moreover, the GI50 with HOP-92 NSCLC is 0.689 µM; with EKVX NSCLC it was 2.25 µM; with LOX IMVI melanoma, 8.11 µM; in the assay with BT-549 breast it was 7.24 µM. Moreover, the TGI was more than 50 µM in the assay with SF-295 CNS; more than 50 µM with OVCAR-5 ovarian; more than 50 µM with A549 NSCLC; 2.18 µM in the assay with 786-0 renal; 3.6 µM in the assay with RXF 393 renal; more than 50 µM in the assay with HCC-2998 colon. In addition, the TGI in the assay on HOP-92 NSCLC was 4.18 µM; with EKVX NSCLC it was more than 50 µM; with LOX IMVI melanoma it was more than 50 µM; in the assay with BT-549 breast, 32 µM.
